Experiments:
Experiment in all cases: viability relative to DMSO control (fraction); higher = less drug effect (more viable cells)
Conditions in all cases: 48 h
[1] = test system: primary AML patient cells (S089)
How it was run: (§1)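 In 384-well plates with compounds pre-plated at five concentrations (one well per concentration), primary mononuclear tumour cells were plated at 4 × 10^4 cells per well. The cells came from blood or bone marrow by Ficoll isolation or from processed lymph node, and were used fresh or cryopreserved. Culture ran for 48 h at 37 °C and 5% CO2 in RPMI-1640 containing penicillin/streptomycin, L-glutamine and human serum. Viability was read as CellTiter-Glo luminescence, normalised to the median of 16 inner DMSO wells.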

[2] = test system: primary AML patient cells (S072)
How it was run: as §1

[3] = test system: primary MCL patient cells (S068)
How it was run: as §1

[4] = test system: primary T-PLL patient cells (S008)
How it was run: as §1

[5] = test system: primary FL patient cells (S087)
How it was run: as §1

[6] = test system: primary AML patient cells (S009)
How it was run: as §1

[7] = test system: primary AML patient cells (S037)
How it was run: as §1

[8] = test system: primary MCL patient cells (S053)
How it was run: as §1

[9] = test system: primary AML patient cells (S091)
How it was run: as §1

[10] = test system: primary CLL patient cells (S031)
How it was run: as §1

[11] = test system: primary AML patient cells (S056)
How it was run: as §1

[12] = test system: primary AML patient cells (S079)
How it was run: as §1

[13] = test system: primary AML patient cells (S055)
How it was run: as §1

[14] = test system: primary AML patient cells (S006)
How it was run: as §1

[15] = test system: primary ALL patient cells (S048)
How it was run: as §1

[16] = test system: primary FL patient cells (S022)
How it was run: as §1

[17] = test system: primary MCL patient cells (S041)
How it was run: as §1

[18] = test system: primary DLBCL patient cells (S082)
How it was run: as §1

[19] = test system: primary MCL patient cells (S063)
How it was run: as §1

[20] = test system: primary AML patient cells (S012)
How it was run: as §1

## Nc1ncn([C@@H]2O[C@H](CO)[C@@H](O)[C@H]2O)c(=O)n1 [Azacytidine (Vidaza)]
[1]; 0.032 µM
  viability: 0.841
[1]; 0.16 µM
  viability: 1.05
[1]; 0.8 µM
  viability: 0.67
[1]; 4 µM
  viability: 0.0823
[1]; 20 µM
  viability: 0.0388
[2]; 0.032 µM
  viability: 1.03
[2]; 0.16 µM
  viability: 1.02
[2]; 0.8 µM
  viability: 0.958
[2]; 4 µM
  viability: 0.83
[2]; 20 µM
  viability: 0.652
[3]; 0.032 µM
  viability: 0.969
[3]; 0.16 µM
  viability: 1.04
[3]; 0.8 µM
  viability: 0.798
[3]; 4 µM
  viability: 0.325
[3]; 20 µM
  viability: 0.232
[4]; 0.032 µM
  viability: 0.965
[4]; 0.16 µM
  viability: 1.02
[4]; 0.8 µM
  viability: 0.988
[4]; 4 µM
  viability: 0.704
[4]; 20 µM
  viability: 0.289
[5]; 0.032 µM
  viability: 1.1
[5]; 0.16 µM
  viability: 1.06
[5]; 0.8 µM
  viability: 0.997
[5]; 4 µM
  viability: 0.906
[5]; 20 µM
  viability: 0.678
[6]; 0.032 µM
  viability: 0.943
[6]; 0.16 µM
  viability: 0.905
[6]; 0.8 µM
  viability: 0.916
[6]; 4 µM
  viability: 0.695
[6]; 20 µM
  viability: 0.468
[7]; 0.032 µM
  viability: 1
[7]; 0.16 µM
  viability: 1.01
[7]; 0.8 µM
  viability: 0.901
[7]; 4 µM
  viability: 0.7
[7]; 20 µM
  viability: 0.595
[8]; 0.032 µM
  viability: 0.924
[8]; 0.16 µM
  viability: 0.999
[8]; 0.8 µM
  viability: 0.587
[8]; 4 µM
  viability: 0.351
[8]; 20 µM
  viability: 0.289
[9]; 0.032 µM
  viability: 0.933
[9]; 0.16 µM
  viability: 1.02
[9]; 0.8 µM
  viability: 0.892
[9]; 4 µM
  viability: 0.788
[9]; 20 µM
  viability: 0.621
[10]; 0.032 µM
  viability: 1.08
[10]; 0.16 µM
  viability: 1.01
[10]; 0.8 µM
  viability: 0.989
[10]; 4 µM
  viability: 0.539
[10]; 20 µM
  viability: 0.0698
[11]; 0.032 µM
  viability: 0.987
[11]; 0.16 µM
  viability: 0.997
[11]; 0.8 µM
  viability: 0.467
[11]; 4 µM
  viability: 0.0878
[11]; 20 µM
  viability: 0.078
[12]; 0.032 µM
  viability: 0.972
[12]; 0.16 µM
  viability: 1.09
[12]; 0.8 µM
  viability: 0.942
[12]; 4 µM
  viability: 0.671
[12]; 20 µM
  viability: 0.304
[13]; 0.032 µM
  viability: 1.04
[13]; 0.16 µM
  viability: 1.05
[13]; 0.8 µM
  viability: 0.806
[13]; 4 µM
  viability: 0.233
[13]; 20 µM
  viability: 0.0906
[14]; 0.032 µM
  viability: 1.07
[14]; 0.16 µM
  viability: 0.973
[14]; 0.8 µM
  viability: 0.426
[14]; 4 µM
  viability: 0.0789
[14]; 20 µM
  viability: 0.0614
[15]; 0.032 µM
  viability: 0.926
[15]; 0.16 µM
  viability: 0.989
[15]; 0.8 µM
  viability: 0.695
[15]; 4 µM
  viability: 0.239
[15]; 20 µM
  viability: 0.102
[16]; 0.032 µM
  viability: 1.03
[16]; 0.16 µM
  viability: 1
[16]; 0.8 µM
  viability: 1.01
[16]; 4 µM
  viability: 0.949
[16]; 20 µM
  viability: 0.624
[17]; 0.032 µM
  viability: 1.04
[17]; 0.16 µM
  viability: 1.03
[17]; 0.8 µM
  viability: 0.812
[17]; 4 µM
  viability: 0.151
[17]; 20 µM
  viability: 0.0515
[18]; 0.032 µM
  viability: 0.969
[18]; 0.16 µM
  viability: 1.08
[18]; 0.8 µM
  viability: 1.07
[18]; 4 µM
  viability: 1.04
[18]; 20 µM
  viability: 0.26
[19]; 0.032 µM
  viability: 1.04
[19]; 0.16 µM
  viability: 1.07
[19]; 0.8 µM
  viability: 1.03
[19]; 4 µM
  viability: 0.839
[19]; 20 µM
  viability: 0.173
[20]; 0.032 µM
  viability: 0.958
[20]; 0.16 µM
  viability: 1.01
[20]; 0.8 µM
  viability: 1.04
[20]; 4 µM
  viability: 0.92
[20]; 20 µM
  viability: 0.766

## CC1(COc2ccc3c(c2)ncn3-c2ccc3cccc(N4CCC(N)CC4)c3n2)COC1 [Crenolanib]
[1]; 0.016 µM
  viability: 0.824
[1]; 0.08 µM
  viability: 0.612
[1]; 0.4 µM
  viability: 0.835
[1]; 2 µM
  viability: 0.835
[1]; 10 µM
  viability: 0.0567
[2]; 0.016 µM
  viability: 0.891
[2]; 0.08 µM
  viability: 0.982
[2]; 0.4 µM
  viability: 0.793
[2]; 2 µM
  viability: 0.742
[2]; 10 µM
  viability: 0.0532
[3]; 0.016 µM
  viability: 0.812
[3]; 0.08 µM
  viability: 0.846
[3]; 0.4 µM
  viability: 0.572
[3]; 2 µM
  viability: 0.417
[3]; 10 µM
  viability: 0.031
[4]; 0.016 µM
  viability: 0.989
[4]; 0.08 µM
  viability: 1.04
[4]; 0.4 µM
  viability: 1.06
[4]; 2 µM
  viability: 1.07
[4]; 10 µM
  viability: 0.107
[5]; 0.016 µM
  viability: 1.02
[5]; 0.08 µM
  viability: 0.971
[5]; 0.4 µM
  viability: 1
[5]; 2 µM
  viability: 0.847
[5]; 10 µM
  viability: 0.357
[6]; 0.016 µM
  viability: 0.926
[6]; 0.08 µM
  viability: 0.979
[6]; 0.4 µM
  viability: 0.921
[6]; 2 µM
  viability: 2.2
[6]; 10 µM
  viability: 0.301
[7]; 0.016 µM
  viability: 1.06
[7]; 0.08 µM
  viability: 1.09
[7]; 0.4 µM
  viability: 1.04
[7]; 2 µM
  viability: 0.811
[7]; 10 µM
  viability: 0.572
[8]; 0.016 µM
  viability: 1.03
[8]; 0.08 µM
  viability: 1.07
[8]; 0.4 µM
  viability: 1.12
[8]; 2 µM
  viability: 0.963
[8]; 10 µM
  viability: 0.348
[9]; 0.016 µM
  viability: 1.03
[9]; 0.08 µM
  viability: 1.32
[9]; 0.4 µM
  viability: 1.37
[9]; 2 µM
  viability: 1.58
[9]; 10 µM
  viability: 0.101
[10]; 0.016 µM
  viability: 1.09
[10]; 0.08 µM
  viability: 1.13
[10]; 0.4 µM
  viability: 1.02
[10]; 2 µM
  viability: 0.305
[10]; 10 µM
  viability: 0.0182
[11]; 0.016 µM
  viability: 0.613
[11]; 0.08 µM
  viability: 1.35
[11]; 0.4 µM
  viability: 0.631
[11]; 2 µM
  viability: 0.73
[11]; 10 µM
  viability: 0.157
[12]; 0.016 µM
  viability: 1.02
[12]; 0.08 µM
  viability: 1.17
[12]; 0.4 µM
  viability: 0.996
[12]; 2 µM
  viability: 0.889
[12]; 10 µM
  viability: 0.0548
[13]; 0.016 µM
  viability: 1.12
[13]; 0.08 µM
  viability: 1.08
[13]; 0.4 µM
  viability: 1.11
[13]; 2 µM
  viability: 1.12
[13]; 10 µM
  viability: 0.381
[14]; 0.016 µM
  viability: 0.559
[14]; 0.08 µM
  viability: 0.649
[14]; 0.4 µM
  viability: 0.889
[14]; 2 µM
  viability: 0.977
[14]; 10 µM
  viability: 0.333
[15]; 0.016 µM
  viability: 0.85
[15]; 0.08 µM
  viability: 0.851
[15]; 0.4 µM
  viability: 0.797
[15]; 2 µM
  viability: 0.554
[15]; 10 µM
  viability: 0.418
[16]; 0.016 µM
  viability: 0.991
[16]; 0.08 µM
  viability: 1.07
[16]; 0.4 µM
  viability: 0.966
[16]; 2 µM
  viability: 0.743
[16]; 10 µM
  viability: 0.0846
[17]; 0.016 µM
  viability: 1.08
[17]; 0.08 µM
  viability: 1.07
[17]; 0.4 µM
  viability: 0.983
[17]; 2 µM
  viability: 0.447
[17]; 10 µM
  viability: 0.0254
[18]; 0.016 µM
  viability: 1
[18]; 0.08 µM
  viability: 1.12
[18]; 0.4 µM
  viability: 1.07
[18]; 2 µM
  viability: 0.624
[18]; 10 µM
  viability: 0.0262
[19]; 0.016 µM
  viability: 1.08
[19]; 0.08 µM
  viability: 1.13
[19]; 0.4 µM
  viability: 0.958
[19]; 2 µM
  viability: 0.83
[19]; 10 µM
  viability: 0.0336
[20]; 0.016 µM
  viability: 0.935
[20]; 0.08 µM
  viability: 0.964
[20]; 0.4 µM
  viability: 0.978
[20]; 2 µM
  viability: 0.959
[20]; 10 µM
  viability: 0.528

Reference: the supplement of paper PMC10733146
